Source: PMC9813109, “Phase I dose-escalation study of milademetan in patients with relapsed or refractory acute myeloid leukemia” (International Journal of Hematology, 2022)
“Also recorded” adds a separate entry of the source. Where two headings read alike, the source gives them in different places.

Legend:
[1] = Plasma pharmacokinetics (validated HPLC/MS, noncompartmental analysis); type: in vivo, human; conditions: for Cmax / AUC(0-t) / Tmax / half-life / AUC(0-inf): human, plasma, oral
Experimental: Milademetan concentrations were determined using a validated HPLC/MS method. The lower limit of quantification was 0.500 ng/mL. Noncompartmental analysis was used to calculate the PK parameters from milademetan plasma concentrations. In addition, the Phoenix WinNonlin 8.1 software (Certara, Princeton, NJ, USA) was used for PK analysis. In addition to descriptive statistics, the geometric mean and geometric coefficient of variation were used to describe the PK parameters. All analyses were conducted using SAS® software (version 9.4; SAS Institute Inc., Cary, NC, USA). The time courses of mean plasma milademetan concentrations on days 1 and 14 of cycle 1 (linear scale) in the QD 14/28-day schedule were used for pharmacokinetic analysis. The best response was measured as CR, CRh, CRi, or PR. For efficacy analysis, a waterfall plot of the best percent change from baseline blast count in bone marrow aspirate on the QD 14/28-day schedule was drawn to assess the blast count reduction. In addition, line plots of individual serum MIC-1 levels were drawn in the QD 14/28-day schedule for the pharmacodynamics analysis set.

[2] = system: macrophage inhibitory cytokine-1 (MIC-1) serum levels; experiment: Serum MIC-1 (GDF-15) ELISA, pharmacodynamic biomarker; type: in vivo, human
Experimental: To investigate biomarkers that could be potentially linked to the milademetan mechanism of action, blood, bone marrow, and serum were collected. TP53 tumor genotyping was done using bone marrow and blood samples collected before milademetan administration and at the end of treatment. TP53 genomic status was determined using a targeted next-generation sequencing following the reference human genome sequence (hg19). QIAamp® DSP FFPE Kit (Qiagen, Hilden, Germany) was used to extract DNA. Quantified DNA samples were processed by polymerase chain reaction (PCR) amplification using custom primer sets of all 11 TP53 exons. Libraries were prepared from purified PCR pools using Illumina TruSeq kits™ (Illumina, San Diego, CA, USA) and analyzed using the MiSeq platform™ (Illumina). Raw reads were aligned against hg19, and data sets were analyzed using a program developed in-house for genomic aberrations (i.e., mutations, deletions, and insertions) detection. Quantikine® ELISA Human GDF-15 immunoassay (R&D Systems, Inc., Minneapolis, MN, USA), employing the quantitative sandwich enzyme immunoassay technique, was used to determine serum MIC-1, also known as growth and differentiation factor-15 (GDF-15). […] In addition to descriptive statistics, the geometric mean and geometric coefficient of variation were used to describe the PK parameters. All analyses were conducted using SAS® software (version 9.4; SAS Institute Inc., Cary, NC, USA). The time courses of mean plasma milademetan concentrations on days 1 and 14 of cycle 1 (linear scale) in the QD 14/28-day schedule were used for pharmacokinetic analysis. The best response was measured as CR, CRh, CRi, or PR. For efficacy analysis, a waterfall plot of the best percent change from baseline blast count in bone marrow aspirate on the QD 14/28-day schedule was drawn to assess the blast count reduction. In addition, line plots of individual serum MIC-1 levels were drawn in the QD 14/28-day schedule for the pharmacodynamics analysis set.

[3] = system: tumor cells; set-up: method as in PMID 31310659, PMID 30724592; conditions: in vitro studies; cited from earlier work
[4] = system: hematologic malignancies like R/R AML and high-risk myelodysplastic syndrome; conditions: QD 14/28-day schedule, USA phase I, ref NCT02319369, data not published; cited from earlier work
[5] = system: patients with solid tumors or lymphomas; conditions: QD 21/28-day schedule, Japanese phase I; cited from earlier work

For `CC1(C)CCC2(CC1)N[C@@H](C(=O)N[C@@H]1CC[C@@H](C(N)=O)OC1)[C@H](c1ccnc(Cl)c1F)[C@]21C(=O)Nc2cc(Cl)ccc21` [milademetan], the AUCinf ([1]; Day 1 of cycle 1, 90 mg/day, mean (SD), two patients excluded) was 13,700 (4,100) ng h/mL, the “Mean accumulation ratios based on AUC24h” value ([1]; Day 14, dose range tested (90-160 mg)) was 1.40–1.90 and the Ctrough ([1]; Day 14 of cycle 1, 90 mg/day, mean (SD)) was 422 (147) ng/mL. For the same compound, the Ctrough ([1]; Day 14 of cycle 1, 120 mg/day, mean (SD)) was 635 (533) ng/mL, the Ctrough ([1]; Day 14 of cycle 1, 160 mg/day, mean (SD)) was 769 (221) ng/mL and the “Increase in Cmax and AUC with dose” value ([1]; dose range tested, single and multiple dosing) was “increased linearly with milademetan dose; also recorded: linear and dose-proportional”. For the same compound, the Cmax ([1]; 90 mg/day, Day 1 of cycle 1, 90 mg/day, mean (SD)) was 653 ng/mL, the AUC(0-t) ([1]; 90 mg/day, Day 1 of cycle 1, 90 mg/day, mean (SD), two patients excluded, read-out: AUC24h) was 8640 ng·h/mL and the AUC(0-t) ([1]; 90 mg/day, Day 1 of cycle 1, 90 mg/day, mean (SD), read-out: AUC8h) was 3170 ng·h/mL. The AUC(0-t) ([1]; 90 mg/day, Day 1 of cycle 1, 90 mg/day, mean (SD), read-out: AUClast) was 8060 ng·h/mL, the Tmax ([1]; 90 mg/day, Day 1 of cycle 1, 90 mg/day, median (minimum, maximum), read-out: Tmax) was 4.45 h and the Cmax ([1]; 90 mg/day, Day 14 of cycle 1, 90 mg/day, mean (SD)) was 1090 ng/mL. It also gave an AUC(0-t) ([1]; 90 mg/day, Day 14 of cycle 1, 90 mg/day, mean (SD), read-out: AUC8h) of 6220 ng·h/mL, a Tmax ([1]; 90 mg/day, Day 14 of cycle 1, 90 mg/day, median (minimum, maximum), read-out: Tmax) of 3.02 h and a Cmax ([1]; 120 mg/day, Day 1 of cycle 1, 120 mg/day, mean (SD)) of 1010 ng/mL. It also gave an AUC(0-t) ([1]; 120 mg/day, Day 1 of cycle 1, 120 mg/day, mean (SD), one patient excluded, read-out: AUC24h) of 12100 ng·h/mL, an AUC(0-t) ([1]; 120 mg/day, Day 1 of cycle 1, 120 mg/day, mean (SD), read-out: AUC8h) of 4940 ng·h/mL and an AUC(0-t) ([1]; 120 mg/day, Day 1 of cycle 1, 120 mg/day, mean (SD), read-out: AUClast) of 11300 ng·h/mL. For the same compound, the Tmax ([1]; 120 mg/day, Day 1 of cycle 1, 120 mg/day, median (minimum, maximum), read-out: Tmax) was 3.13 h, the Cmax ([1]; 120 mg/day, Day 14 of cycle 1, 120 mg/day, mean (SD)) was 1680 ng/mL and the AUC(0-t) ([1]; 120 mg/day, Day 14 of cycle 1, 120 mg/day, mean (SD), read-out: AUC8h) was 10000 ng·h/mL. It also gave a Tmax ([1]; 120 mg/day, Day 14 of cycle 1, 120 mg/day, median (minimum, maximum), read-out: Tmax) of 2.98 h, a Cmax ([1]; 160 mg/day, Day 1 of cycle 1, 160 mg/day, mean (SD)) of 1380 ng/mL and an AUC(0-t) ([1]; 160 mg/day, Day 1 of cycle 1, 160 mg/day, mean (SD), two patients excluded, read-out: AUC24h) of 15000 ng·h/mL. For the same compound, the AUC(0-t) ([1]; 160 mg/day, Day 1 of cycle 1, 160 mg/day, mean (SD), read-out: AUC8h) was 6560 ng·h/mL, the AUC(0-t) ([1]; 160 mg/day, Day 1 of cycle 1, 160 mg/day, mean (SD), read-out: AUClast) was 14900 ng·h/mL and the Tmax ([1]; 160 mg/day, Day 1 of cycle 1, 160 mg/day, median (minimum, maximum), read-out: Tmax) was 2.54 h. For the same compound, the Cmax ([1]; 160 mg/day, Day 14 of cycle 1, 160 mg/day, mean (SD)) was 2710 ng/mL, the AUC(0-t) ([1]; 160 mg/day, Day 14 of cycle 1, 160 mg/day, mean (SD), read-out: AUC8h) was 15300 ng·h/mL and the Tmax ([1]; 160 mg/day, Day 14 of cycle 1, 160 mg/day, median (minimum, maximum), read-out: Tmax) was 3.03 h. The half-life ([1]; Day 1 of cycle 1, 90 mg/day, mean (SD), two patients excluded, read-out: t1/2 (converted)) was 15.9 h, the AUC(0-inf) ([1]; Day 1 of cycle 1, 120 mg/day, mean (SD), one patient excluded) was 18600 ng·h/mL and the half-life ([1]; Day 1 of cycle 1, 120 mg/day, mean (SD), one patient excluded, read-out: t1/2 (converted)) was 14.1 h. The AUC(0-inf) ([1]; Day 1 of cycle 1, 160 mg/day, mean (SD), two patients excluded) was 22700 ng·h/mL, the half-life ([1]; Day 1 of cycle 1, 160 mg/day, mean (SD), two patients excluded, read-out: t1/2 (converted)) was 14.6 h and the half-life ([1]; across doses, read-out: Mean half-life (converted)) was ~15 h. For the same compound, the Tmax ([1]; across doses, read-out: Median Tmax) was 3 to 4 h, the “Mean serum MIC-1 levels vs baseline” value ([2]; all cohorts, after administration) was “increased from baseline in all cohorts” and the “Peak MIC-1 levels, 120- and 160-mg cohorts vs 90-mg cohort” value ([2]; in vivo) was “tended to be higher”. For the same compound, the “Time of peak serum MIC-1 level” value ([2]; most patients) was “day 8 or 14 of cycle 1”, the “Antitumor effect in vitro” value [3] was “p53 status-dependent antitumor effect” and the “Maximum tolerated dose (MTD)” value [4] was 160 mg. For the same compound, the “Maximum tolerated dose (MTD)” value [5] was 90 mg.
